Test results: ChEMBL document CHEMBL1201862, “PubChem BioAssay data set” (2004)
“And” between values parts separate entries of the source, which are not always exact repeats. Equal values may be shown once. The source made the active and inactive calls.

Legend:
[1] = target: Ras and Rab interactor 1/Tyrosine-protein kinase ABL1 (Homo sapiens, UniProt P00519+Q13671); type: functional;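 also: biochemical TR-FRET dose-response test measuring inhibition of binding between Rin1 and Abl proteins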
[2] = target: DNA (cytosine-5)-methyltransferase 1 (Homo sapiens, UniProt P26358); experiment: DNMT1 methyltransferase inhibitors, confirmation, biochemical, fluorescent molecular beacon (AID 602386); type: functional
Chain of DNA (cytosine-5)-methyltransferase 1 (P26358 whole entry): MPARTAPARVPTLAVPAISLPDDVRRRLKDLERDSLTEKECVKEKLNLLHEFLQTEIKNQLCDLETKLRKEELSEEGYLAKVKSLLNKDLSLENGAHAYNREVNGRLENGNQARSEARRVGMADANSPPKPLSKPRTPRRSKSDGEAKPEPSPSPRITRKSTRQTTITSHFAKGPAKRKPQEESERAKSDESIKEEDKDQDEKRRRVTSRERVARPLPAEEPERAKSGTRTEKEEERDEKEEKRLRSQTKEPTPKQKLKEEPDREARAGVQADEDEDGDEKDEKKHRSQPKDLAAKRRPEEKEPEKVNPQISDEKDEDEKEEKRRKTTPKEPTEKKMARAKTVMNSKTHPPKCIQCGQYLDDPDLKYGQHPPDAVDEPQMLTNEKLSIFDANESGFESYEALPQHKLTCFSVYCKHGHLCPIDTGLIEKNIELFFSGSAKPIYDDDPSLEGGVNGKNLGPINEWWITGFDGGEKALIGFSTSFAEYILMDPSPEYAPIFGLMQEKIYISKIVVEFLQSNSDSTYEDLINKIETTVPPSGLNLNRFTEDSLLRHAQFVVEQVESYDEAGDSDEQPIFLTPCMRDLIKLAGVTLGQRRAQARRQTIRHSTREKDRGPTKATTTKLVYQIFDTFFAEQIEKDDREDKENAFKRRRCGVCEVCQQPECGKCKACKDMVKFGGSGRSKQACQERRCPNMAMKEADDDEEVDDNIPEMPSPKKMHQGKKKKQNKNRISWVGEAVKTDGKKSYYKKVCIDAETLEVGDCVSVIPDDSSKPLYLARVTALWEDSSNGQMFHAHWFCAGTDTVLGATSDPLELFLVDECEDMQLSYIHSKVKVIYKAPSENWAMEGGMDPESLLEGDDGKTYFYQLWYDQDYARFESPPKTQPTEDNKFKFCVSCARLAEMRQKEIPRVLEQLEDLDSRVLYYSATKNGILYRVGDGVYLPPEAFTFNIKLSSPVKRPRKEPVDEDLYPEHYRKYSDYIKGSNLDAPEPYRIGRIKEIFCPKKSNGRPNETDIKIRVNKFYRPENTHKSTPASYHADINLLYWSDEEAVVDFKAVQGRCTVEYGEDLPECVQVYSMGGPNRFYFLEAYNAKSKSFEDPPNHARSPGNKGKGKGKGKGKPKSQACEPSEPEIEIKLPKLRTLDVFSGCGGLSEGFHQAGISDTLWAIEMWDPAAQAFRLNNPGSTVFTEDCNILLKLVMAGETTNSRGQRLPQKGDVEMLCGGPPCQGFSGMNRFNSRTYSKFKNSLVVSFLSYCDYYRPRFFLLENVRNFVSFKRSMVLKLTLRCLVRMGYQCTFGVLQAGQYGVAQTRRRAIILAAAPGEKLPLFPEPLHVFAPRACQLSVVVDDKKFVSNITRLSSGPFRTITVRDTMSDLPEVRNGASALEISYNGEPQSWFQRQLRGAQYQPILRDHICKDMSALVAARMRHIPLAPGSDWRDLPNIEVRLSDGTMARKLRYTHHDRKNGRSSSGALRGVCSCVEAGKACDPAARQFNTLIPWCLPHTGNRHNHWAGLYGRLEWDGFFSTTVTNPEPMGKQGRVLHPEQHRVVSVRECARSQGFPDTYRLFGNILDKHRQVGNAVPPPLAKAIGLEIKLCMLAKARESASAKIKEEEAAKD

[3] = target: T1, Histone-lysine N-methyltransferase NSD2 (Homo sapiens, UniProt O96028); type: biochemical
T1 sequence (O96028 whole entry): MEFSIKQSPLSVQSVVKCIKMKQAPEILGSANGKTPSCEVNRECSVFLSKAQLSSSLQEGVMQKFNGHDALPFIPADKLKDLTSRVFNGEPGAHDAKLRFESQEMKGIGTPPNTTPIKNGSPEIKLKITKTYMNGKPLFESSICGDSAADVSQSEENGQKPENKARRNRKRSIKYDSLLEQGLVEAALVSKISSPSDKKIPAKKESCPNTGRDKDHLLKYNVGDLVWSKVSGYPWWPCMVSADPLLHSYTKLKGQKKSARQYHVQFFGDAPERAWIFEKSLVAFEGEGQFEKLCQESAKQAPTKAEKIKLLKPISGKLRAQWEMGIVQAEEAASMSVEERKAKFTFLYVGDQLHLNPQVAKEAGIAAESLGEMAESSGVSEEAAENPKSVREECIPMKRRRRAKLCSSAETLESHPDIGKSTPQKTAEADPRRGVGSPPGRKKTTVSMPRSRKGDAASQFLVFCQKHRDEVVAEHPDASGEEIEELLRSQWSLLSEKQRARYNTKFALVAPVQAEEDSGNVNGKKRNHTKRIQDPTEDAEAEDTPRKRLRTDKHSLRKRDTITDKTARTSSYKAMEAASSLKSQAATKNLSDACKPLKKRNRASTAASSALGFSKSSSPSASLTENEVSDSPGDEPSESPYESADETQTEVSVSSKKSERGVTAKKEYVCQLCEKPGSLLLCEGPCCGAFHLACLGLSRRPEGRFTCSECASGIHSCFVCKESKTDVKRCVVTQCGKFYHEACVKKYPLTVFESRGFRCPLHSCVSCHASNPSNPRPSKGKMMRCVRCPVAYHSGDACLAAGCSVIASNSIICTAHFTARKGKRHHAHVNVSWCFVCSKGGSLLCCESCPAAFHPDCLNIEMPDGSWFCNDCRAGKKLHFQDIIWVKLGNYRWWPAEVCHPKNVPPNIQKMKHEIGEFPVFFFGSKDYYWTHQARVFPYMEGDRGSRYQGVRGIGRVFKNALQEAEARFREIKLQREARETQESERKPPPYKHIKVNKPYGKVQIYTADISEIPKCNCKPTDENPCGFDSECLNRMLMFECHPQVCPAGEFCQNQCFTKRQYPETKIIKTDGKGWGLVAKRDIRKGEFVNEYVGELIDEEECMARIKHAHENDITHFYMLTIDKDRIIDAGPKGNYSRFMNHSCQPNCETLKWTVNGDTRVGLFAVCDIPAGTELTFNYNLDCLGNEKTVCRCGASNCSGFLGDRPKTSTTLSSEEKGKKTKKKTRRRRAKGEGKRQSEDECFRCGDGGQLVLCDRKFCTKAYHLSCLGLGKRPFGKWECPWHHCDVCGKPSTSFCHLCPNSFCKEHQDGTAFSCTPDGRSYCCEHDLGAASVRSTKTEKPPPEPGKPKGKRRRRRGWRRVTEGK

[4] = target: Multidrug resistance protein CDR2 (Candida albicans (strain SC5314 / ATCC MYA-2876) (Yeast), UniProt P78595); experiment: CaCDR2 efflux pump inhibitors in yeast, dose response, S. cerevisiae AD1-8u, singleplex, Cherry Pick2 set (AID 623994); type: functional; settings: read-out: EC50_MICROM
[5] = target: T2, Mitochondrial peptide methionine sulfoxide reductase (Bos taurus, UniProt P54149); experiment: Absorbance-based biochemical high throughput dose response assay for activators of Methionine sulfoxide reductase A (MsrA).; type: functional
T2 sequence (P54149 whole entry): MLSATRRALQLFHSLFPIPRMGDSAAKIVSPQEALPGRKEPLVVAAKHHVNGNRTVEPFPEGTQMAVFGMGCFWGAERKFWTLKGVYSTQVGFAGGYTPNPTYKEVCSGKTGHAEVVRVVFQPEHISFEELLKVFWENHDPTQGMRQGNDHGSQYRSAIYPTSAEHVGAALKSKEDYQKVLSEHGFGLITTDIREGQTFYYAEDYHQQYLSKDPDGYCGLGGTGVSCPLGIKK

[6] = target: Dual specificity tyrosine-phosphorylation-regulated kinase 1B (Homo sapiens, UniProt Q9Y463); experiment: Navigating the Kinome. Panel member name: DYRK1B; type: functional
Chain of Dual specificity tyrosine-phosphorylation-regulated kinase 1B (Q9Y463 whole entry): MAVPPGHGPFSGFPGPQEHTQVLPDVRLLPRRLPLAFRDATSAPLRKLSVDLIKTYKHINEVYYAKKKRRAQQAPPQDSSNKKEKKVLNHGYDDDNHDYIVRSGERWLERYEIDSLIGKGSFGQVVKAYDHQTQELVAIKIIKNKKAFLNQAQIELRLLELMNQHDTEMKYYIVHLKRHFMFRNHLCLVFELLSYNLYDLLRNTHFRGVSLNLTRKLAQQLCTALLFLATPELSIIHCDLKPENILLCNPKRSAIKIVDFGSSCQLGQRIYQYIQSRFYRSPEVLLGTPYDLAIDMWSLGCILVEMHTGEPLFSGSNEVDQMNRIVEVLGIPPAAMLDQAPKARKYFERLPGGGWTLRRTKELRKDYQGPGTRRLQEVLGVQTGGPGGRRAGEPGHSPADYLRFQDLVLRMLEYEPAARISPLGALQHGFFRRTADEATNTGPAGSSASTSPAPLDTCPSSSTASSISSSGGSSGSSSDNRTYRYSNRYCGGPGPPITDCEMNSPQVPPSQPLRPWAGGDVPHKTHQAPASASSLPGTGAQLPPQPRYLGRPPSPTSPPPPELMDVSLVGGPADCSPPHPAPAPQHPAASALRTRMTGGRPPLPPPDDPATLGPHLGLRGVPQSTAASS

[7] = target: Serine/threonine-protein kinase 3 (Homo sapiens, UniProt Q13188); type: functional;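 also: measured as one member of a kinome-wide kinase panel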
Chain of Serine/threonine-protein kinase 3 (Q13188 whole entry): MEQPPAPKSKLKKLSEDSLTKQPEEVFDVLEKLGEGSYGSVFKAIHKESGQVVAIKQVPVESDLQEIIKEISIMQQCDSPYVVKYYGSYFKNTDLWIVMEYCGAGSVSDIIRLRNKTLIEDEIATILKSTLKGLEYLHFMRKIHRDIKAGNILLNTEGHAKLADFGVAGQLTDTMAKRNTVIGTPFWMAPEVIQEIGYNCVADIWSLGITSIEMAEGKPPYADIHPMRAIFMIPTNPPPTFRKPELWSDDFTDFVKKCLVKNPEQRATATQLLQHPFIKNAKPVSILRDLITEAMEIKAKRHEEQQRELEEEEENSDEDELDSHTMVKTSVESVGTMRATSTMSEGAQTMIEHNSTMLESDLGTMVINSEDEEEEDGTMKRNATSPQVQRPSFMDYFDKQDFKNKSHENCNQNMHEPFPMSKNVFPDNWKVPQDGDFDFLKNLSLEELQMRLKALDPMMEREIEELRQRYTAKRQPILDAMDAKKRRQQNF

[8] = THP-1 cell cytotoxicity, cytotoxicity control, set 4 (AID 504911); type: functional; settings: Mycobacterium tuberculosis
[9] = THP-1 cell cytotoxicity, dose response, cytotoxicity control, set 3 (AID 504852); type: functional; settings: Mycobacterium tuberculosis
[10] = Vero cell cytotoxicity, dose response, cytotoxicity control for M. tuberculosis growth inhibitor project, Vero cells, purified and synthesized compounds, set 4 (AID 504854); type: functional; settings: Mycobacterium tuberculosis
[11] = target: T3, Apoptotic protease-activating factor 1 (Homo sapiens, UniProt O14727); experiment: SAR analysis of small molecule Activators of Apaf-1 in a Fluorescent assay.; type: functional; settings: read-out: EC50_Mean;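 also: caspase-3 cleavage of fluorogenic Rh110 DEVD substrate downstream of apoptosome activation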
T3 sequence (O14727 whole entry): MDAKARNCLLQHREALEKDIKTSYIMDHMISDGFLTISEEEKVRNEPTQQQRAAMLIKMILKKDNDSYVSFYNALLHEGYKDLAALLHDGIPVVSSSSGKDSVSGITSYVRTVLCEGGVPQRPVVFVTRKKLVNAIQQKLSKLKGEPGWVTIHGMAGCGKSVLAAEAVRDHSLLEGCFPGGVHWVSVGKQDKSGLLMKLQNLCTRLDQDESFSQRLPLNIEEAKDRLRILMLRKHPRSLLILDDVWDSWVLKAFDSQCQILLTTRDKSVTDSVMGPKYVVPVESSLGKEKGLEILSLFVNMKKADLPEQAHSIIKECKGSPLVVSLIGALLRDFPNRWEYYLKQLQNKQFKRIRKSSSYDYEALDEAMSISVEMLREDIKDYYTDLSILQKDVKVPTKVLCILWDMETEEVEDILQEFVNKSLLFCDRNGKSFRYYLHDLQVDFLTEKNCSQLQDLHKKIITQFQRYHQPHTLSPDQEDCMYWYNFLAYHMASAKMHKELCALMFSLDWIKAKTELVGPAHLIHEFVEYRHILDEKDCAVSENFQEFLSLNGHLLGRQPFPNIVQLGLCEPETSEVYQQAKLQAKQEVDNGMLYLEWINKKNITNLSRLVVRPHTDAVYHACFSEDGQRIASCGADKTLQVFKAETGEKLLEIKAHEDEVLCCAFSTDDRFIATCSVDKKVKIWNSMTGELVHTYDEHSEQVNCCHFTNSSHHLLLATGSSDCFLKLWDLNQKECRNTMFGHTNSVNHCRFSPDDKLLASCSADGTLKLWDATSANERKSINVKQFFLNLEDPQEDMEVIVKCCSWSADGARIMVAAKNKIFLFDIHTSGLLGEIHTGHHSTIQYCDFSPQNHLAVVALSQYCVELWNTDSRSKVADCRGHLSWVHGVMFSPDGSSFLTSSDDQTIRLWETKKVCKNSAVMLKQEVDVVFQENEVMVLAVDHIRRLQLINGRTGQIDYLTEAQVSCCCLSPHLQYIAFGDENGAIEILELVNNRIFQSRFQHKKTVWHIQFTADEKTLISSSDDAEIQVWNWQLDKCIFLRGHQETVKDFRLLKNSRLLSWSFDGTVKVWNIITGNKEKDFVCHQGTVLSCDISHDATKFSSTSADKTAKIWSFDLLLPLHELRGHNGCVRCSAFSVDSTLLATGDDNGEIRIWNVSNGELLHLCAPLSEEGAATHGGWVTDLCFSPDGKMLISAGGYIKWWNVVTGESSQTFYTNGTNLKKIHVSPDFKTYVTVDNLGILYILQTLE

[12] = target: DNA dC->dU-editing enzyme APOBEC-3G (Homo sapiens, UniProt Q9HC16); experiment: APOBEC3G deaminase inhibitors, SAR follow-up, biochemical, fluorescence, single-stranded DNA substrate (AID 602136); type: functional; settings: read-out: IC50_Mean
Chain of DNA dC->dU-editing enzyme APOBEC-3G (Q9HC16 whole entry): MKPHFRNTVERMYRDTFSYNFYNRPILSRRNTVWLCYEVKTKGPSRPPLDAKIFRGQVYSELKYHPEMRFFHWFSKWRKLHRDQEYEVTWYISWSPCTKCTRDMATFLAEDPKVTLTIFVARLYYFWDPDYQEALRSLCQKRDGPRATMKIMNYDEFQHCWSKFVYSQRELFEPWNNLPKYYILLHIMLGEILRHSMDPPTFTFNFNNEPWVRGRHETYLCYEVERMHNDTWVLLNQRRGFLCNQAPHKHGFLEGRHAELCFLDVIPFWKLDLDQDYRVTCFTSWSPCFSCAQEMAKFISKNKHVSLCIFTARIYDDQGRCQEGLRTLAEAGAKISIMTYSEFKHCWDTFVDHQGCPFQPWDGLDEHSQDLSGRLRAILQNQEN

[13] = target: DNA dC->dU-editing enzyme APOBEC-3A (Homo sapiens, UniProt P31941); experiment: SAR analysis of small molecule inhibitors of APOBEC3A DNA Deaminase via a fluorescence-based single-stranded DNA deaminase assay.; type: functional; settings: read-out: IC50_Mean
Chain of DNA dC->dU-editing enzyme APOBEC-3A (P31941 whole entry): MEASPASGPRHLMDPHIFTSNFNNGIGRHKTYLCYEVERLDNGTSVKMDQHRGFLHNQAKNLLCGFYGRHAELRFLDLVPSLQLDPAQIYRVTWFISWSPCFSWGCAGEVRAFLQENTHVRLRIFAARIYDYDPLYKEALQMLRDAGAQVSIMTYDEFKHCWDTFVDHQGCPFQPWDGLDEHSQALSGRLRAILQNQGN

[14] = target: Serine/threonine-protein kinase PLK3 (Homo sapiens, UniProt Q9H4B4); type: functional
Chain of Serine/threonine-protein kinase PLK3 (Q9H4B4 whole entry): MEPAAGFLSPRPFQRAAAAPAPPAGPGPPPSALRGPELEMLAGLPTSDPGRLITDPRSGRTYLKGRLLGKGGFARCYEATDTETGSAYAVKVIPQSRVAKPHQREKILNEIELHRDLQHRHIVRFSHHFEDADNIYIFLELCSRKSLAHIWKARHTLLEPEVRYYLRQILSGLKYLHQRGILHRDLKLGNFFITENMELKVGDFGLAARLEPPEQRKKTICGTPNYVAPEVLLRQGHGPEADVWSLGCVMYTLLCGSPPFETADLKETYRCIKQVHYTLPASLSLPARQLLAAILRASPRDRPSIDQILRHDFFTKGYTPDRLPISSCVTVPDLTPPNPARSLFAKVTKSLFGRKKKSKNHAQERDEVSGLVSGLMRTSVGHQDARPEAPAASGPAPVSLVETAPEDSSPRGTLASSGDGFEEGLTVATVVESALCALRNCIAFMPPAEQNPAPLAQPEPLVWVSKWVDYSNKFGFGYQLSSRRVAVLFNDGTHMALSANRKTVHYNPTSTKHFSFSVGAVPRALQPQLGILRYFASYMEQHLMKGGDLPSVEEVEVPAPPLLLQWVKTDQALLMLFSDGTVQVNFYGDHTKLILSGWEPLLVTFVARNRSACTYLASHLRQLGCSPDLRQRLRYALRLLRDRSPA

[15] = target: Casein kinase II subunit alpha (Homo sapiens, UniProt P68400); type: functional
Chain of Casein kinase II subunit alpha (P68400 whole entry): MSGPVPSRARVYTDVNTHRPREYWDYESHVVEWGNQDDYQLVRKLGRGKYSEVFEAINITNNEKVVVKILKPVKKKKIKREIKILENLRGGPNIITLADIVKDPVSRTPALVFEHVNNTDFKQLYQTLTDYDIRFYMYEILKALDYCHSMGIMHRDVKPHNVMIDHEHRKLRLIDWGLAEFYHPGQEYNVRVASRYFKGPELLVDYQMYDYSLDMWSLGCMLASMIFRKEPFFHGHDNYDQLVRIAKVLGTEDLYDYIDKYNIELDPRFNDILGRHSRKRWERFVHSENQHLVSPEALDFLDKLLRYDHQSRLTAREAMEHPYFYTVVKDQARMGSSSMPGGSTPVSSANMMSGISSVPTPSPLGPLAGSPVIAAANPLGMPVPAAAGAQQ

[16] = target: Mitogen-activated protein kinase 13 (Homo sapiens, UniProt O15264); type: functional
Chain of Mitogen-activated protein kinase 13 (O15264 whole entry): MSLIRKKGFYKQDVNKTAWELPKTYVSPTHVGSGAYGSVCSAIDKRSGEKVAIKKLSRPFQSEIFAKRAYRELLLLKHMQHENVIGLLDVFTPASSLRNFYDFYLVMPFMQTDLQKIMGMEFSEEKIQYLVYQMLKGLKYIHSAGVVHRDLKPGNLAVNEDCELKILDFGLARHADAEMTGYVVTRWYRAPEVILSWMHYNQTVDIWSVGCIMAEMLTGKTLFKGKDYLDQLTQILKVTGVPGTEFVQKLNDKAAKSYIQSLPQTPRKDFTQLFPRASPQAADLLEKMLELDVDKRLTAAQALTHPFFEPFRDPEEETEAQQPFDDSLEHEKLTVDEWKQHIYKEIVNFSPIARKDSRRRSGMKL

CC[C@]12c3[nH]c4ccc(OC)cc4c3CCN1C(=O)C(CC(=O)NCc1cccc(C(F)(F)F)c1)C[C@@H]2C(=O)N1CCN(C(=O)c2ccco2)CC1 (stereo partly drawn)
IC50 [1]: 20.1 µM (inactive)

N=C1/C(=C/c2coc3ccccc3c2=O)C(=O)N=C2SC(c3ccco3)=NN12
IC50 [2]: 11.6 µM (active) | AC50 [3]: 4.93 µM (active)

O=C(NCCC1=CCCCC1)C1CCC(CNc2[nH]c(=S)nc3ccccc23)CC1 (stereo not drawn)
EC50 [4]: 72.6 µM (active)

O=c1[nH]c(=S)[nH]cc1Oc1ccc(Cl)cc1
EC50 [5]: > 104 µM (inactive)

CC(Oc1cc(-c2cnn(C3CCNCC3)c2)cnc1N)c1c(Cl)ccc(F)c1Cl (stereo not drawn)
Ki [6]: > 2.51 µM (inactive) | Ki [7]: 3.16 µM (active) and 794 nM (active)

CC(Sc1nc2ccccc2c(=O)[nH]1)C(=O)NC1CCCCC1 (stereo not drawn)
CC50 [8]: > 100 µM (active) | CC50 [9]: > 100 µM (active) | CC50 [10]: > 100 µM (active)

COc1ccc(C)c(NCC(C)C(=O)O)c1 (stereo not drawn)
EC50 [11]: > 100 µM (inactive)

c1cncc(-c2nc3sc4c(c3c3nncn23)CCCC4)c1
IC50 [12]: > 99 µM (inactive) | IC50 [13]: > 99 µM (inactive)

Nc1csc(Nc2ccccc2)n1
Ki [14]: 2.51 µM (active) | Ki [15]: 10 µM (active)

O=C(NC1CCCCC1)c1nn2c(C(F)(F)F)cc(-c3ccc(Br)cc3)nc2c1Cl
IC50 [12]: > 99 µM (inactive) | IC50 [13]: > 99 µM (inactive)

CCOc1nc(NC(=O)Cc2cc(OC)ccc2OC)cc(N)c1C#N
Ki [16]: > 7.94 µM (inactive)
